Source: patent publication US7491507B2, “Process for preparing peptides with anti-hypertensive properties” (Chr. Hansen A/S, priority 2002, dated 2009)

Tested on: Spontaneously Hypertensive Rats (SHR)
Assay: In vivo test of anti-hypertensive properties: systolic blood pressure by plethysmography in conscious SHR after gavage
Set-up: species or system rat
Conditions: gavage 2 ml of product (Enalapril 20 mg/kg in milk)
Experimental: Strains were streaked on MRS agar and incubated anaerobically for 48 h at 37° C. A single colony was picked, inoculated into MRS broth and grown overnight at 37° C. Stock cultures were prepared from this overnight culture and were stored at −80° C. in 20% glycerol. The strains were precultivated in milk overnight and inoculated 1% (v/v) in fresh milk for the fermentation.
The milk was fermented with the strains of single or mixed cultures for 16 hours with an inoculation level of 1% (v/v). The total product was freeze-dried. A second fermentation, with the same conditions as the first one, was centrifuged. The pellet was discarded and the whey was filtered through a […] filter and frozen. The whey was used to solubilize the freeze-dried powder to concentrate it with a factor 5 before feeding the rats.
Spontaneously Hypertensive Rats (SHR) was obtained from IFFA CREDO (a Charles River company), Lyon, France. […]
Systolic blood pressure was determined by plethysmography in conscious SHR before as well as […] after gavages, at the different times described below. […]
Systolic blood pressure of Group 1 was determined parallel to those of groups 2 and 3 and serves as control.
The day of the gavage systolic blood pressure was determined before as well as 6 and 24 hours after gavage.

CCOC(=O)[C@H](CCc1ccccc1)N[C@@H](C)C(=O)N1CCC[C@H]1C(=O)O [Enalapril]
variation of systolic blood pressure (5 hours after administration): −30 | variation of systolic blood pressure (24 hours after administration): −17
